The subject of test [1] is vancomycin-resistant Enterococcus faecium (VRE). Nature of the test: Dispersion of preformed VRE (E. faecium) biofilm. Type of test: cell-based. As to conditions: concentration that disperses 50% of a pre-formed biofilm. Here is the method: (§1) A dose-response study was then initiated in which both the IC50 and EC50 value of each compound towards the bacterial strains were determined (Table 1). Here, IC50 is defined as the concentration of compound that inhibits 50% biofilm development while EC50 is defined as the concentration of compound that disperses 50% of a pre-formed biofilm.
(§2) Procedure to Determine the Dispersal Effect of Test Compounds on E. faecium, MRSA and S. epidermidis Preformed Biofilms:
(§3) Dispersion assays were performed by taking an overnight culture of bacterial strain and subculturing it at an OD600 of 0.01 into the necessary media (brain heart infusion for E. faecium, tryptic soy broth with a 0.5% glucose supplement (TSBG) for MRSA and tryptic soy broth with a 0.5% glucose supplement and a 3.0% NaCl supplement (TGN) for S. epidermidis. The resulting bacterial suspension was aliquoted (100 μL) into the wells of a 96-well PVC microtiter plate. Plates were then wrapped in GLAD Press n′ Seal® followed by an incubation under stationary conditions at ambient temperature to establish the biofilms. After 24 h, the media was discarded from the wells and the plates were washed thoroughly with water. Stock solutions of predetermined concentrations of the test compound were then made in the necessary media. These stock solutions were aliquoted (100 μL) into the wells of the 96-well PVC microtiter plate with the established biofilms. Media alone was added to a subset of the wells to serve as a control. Sample Plates were then incubated for 24 h at 37° C. After incubation, the media was discarded from the wells and the plates were washed thoroughly with water. Plates were then stained with 100 μL of 0.1% solution of crystal violet (CV) and then incubated at ambient temperature for 30 min. Plates were washed with water again and the remaining stain was solubilized with 200 μL of 95% ethanol. A sample of 125 μL of solubilized CV stain from each well was transferred to the corresponding wells of a polystyrene microtiter dish. Biofilm dispersion was quantitated by measuring the OD540 of each well in which a negative control lane wherein no biofilm was formed served as a background and was subtracted out.

Test [2] relates to S. epidermidis. Nature of the test: Dispersion of preformed S. epidermidis biofilm. Type of test: cell-based, Staphylococcus epidermidis. Particulars: concentration that disperses 50% of a pre-formed biofilm. Here is the method: as §1, §2, §3
Test [3] relates to MRSA. Nature of the test: Dispersion of preformed MRSA biofilm. The test is classed as cell-based, Staphylococcus aureus. Particulars: concentration that disperses 50% of a pre-formed biofilm. Here is the method: as §1, §2, §3
For test [4], the system named is MRSA. Nature of the test: Inhibition of MRSA biofilm formation (crystal violet). Type of test: cell-based, Staphylococcus aureus. As to conditions: for IC50: concentration that inhibits 50% biofilm development; for ability to inhibit biofilm formation: 100 μM (highest concentration tested). Here is the method:
as §1
(§4) Procedure to Determine the Inhibitory Effect of Test Compounds on E. faecium, MRSA, S. epidermidis, PAO1 and MDRAB Biofilm Formation:
(§5) Inhibition assays were performed by taking an overnight culture of bacterial strain and subculturing it at an OD600 of 0.01 into the necessary media (brain heart infusion for E. faecium, tryptic soy broth with a 0.5% glucose supplement (TSBG) for MRSA, Luria-Bertani (LB) media for MDRAB, Luria-Bertani media without NaCl (LBNS) for PAO1 and tryptic soy broth with a 0.5% glucose supplement and a 3.0% NaCl supplement (TGN) for S. epidermidis. Stock solutions of predetermined concentrations of the test compound were then made in the necessary media. These stock solutions were aliquoted (100 μL) into the wells of the 96-well PVC microtiter plate. Sample plates were then wrapped in GLAD Press n′ Seal® followed by an incubation under stationary conditions for 24 h at 37° C. After incubation, the media was discarded from the wells and the plates were washed thoroughly with water. Plates were then stained with 100 μL of 0.1% solution of crystal violet (CV) and then incubated at ambient temperature for 30 min. Plates were washed with water again and the remaining stain was solubilized with 200 μL of 95% ethanol. A sample of 125 μL of solubilized CV stain from each well was transferred to the corresponding wells of a polystyrene microtiter dish. Biofilm inhibition was quantitated by measuring the OD540 of each well in which a negative control lane wherein no biofilm was formed served as a background and was subtracted out.
as §5, with “2-(2-amino-1H-benzo[d]imidazol-6-ylcarbamoyl)-3,4,5,6-tetrachlorobenzoic acid hydrochloride” for “test compound”, “media. Samples were then doped with 10.0 μM FeSO4 with samples with no test compound to examine effects of 10.0 μM FeSO4 on biofilm formation.” for “media.”

Test [5] deals with vancomycin-resistant Enterococcus faecium (VRE). Nature of the test: Inhibition of VRE (E. faecium) biofilm formation (crystal violet). Particulars: for ability to inhibit biofilm formation: 100 μM (highest concentration tested). Type of test: cell-based. Here is the method: as §1, §4, §5
as §5, with “2-(2-amino-1H-benzo[d]imidazol-6-ylcarbamoyl)-3,4,5,6-tetrachlorobenzoic acid hydrochloride” for “test compound”, “media. Samples were then doped with 10.0 μM FeSO4 with samples with no test compound to examine effects of 10.0 μM FeSO4 on biofilm formation.” for “media.”

Test [6] deals with S. epidermidis. Nature of the test: Inhibition of S. epidermidis biofilm formation (crystal violet). Type of test: cell-based, Staphylococcus epidermidis. As to conditions: for IC50: concentration that inhibits 50% biofilm development; for ability to inhibit biofilm formation: 100 μM (highest concentration tested). Here is the method:
as §1, §4, §5
as §5, with “2-(2-amino-1H-benzo[d]imidazol-6-ylcarbamoyl)-3,4,5,6-tetrachlorobenzoic acid hydrochloride” for “test compound”, “media. Samples were then doped with 10.0 μM FeSO4 with samples with no test compound to examine effects of 10.0 μM FeSO4 on biofilm formation.” for “media.”

Test [7] in a line: Divalent zinc binding via 1H NMR spectroscopy. As to conditions: 0, 0.5, 1.0 equivalents ZnCl2; DMSO. Here is the method: Given this Zn(II)-dependence, the ability of 3 to bind zinc directly was determined to ascertain if the mechanism was potentially occurring via a Zn(II)-binding mechanism. To answer this question, an ^1H NMR binding experiment was performed in which the chemical shifts of 3 were measured in the presence of 0 equivalents, 0.5 equivalents, and 1.0 equivalents ZnCl2. […] As a control, the same experiment was performed with FeSO4.
Procedure to Determine the Divalent Zinc Binding Effects of Test Compounds via ^1H NMR Spectroscopy:
^1H NMR Spectra were obtained of the test compounds in DMSO on a 400 MHz NMR in the absence and in the presence of one equivalent of ZnCl2. 2-(2-amino-1H-benzo[d]imidazol-5-ylcarbamoyl)-3,4,5,6-tetrachlorobenzoic acid hydrochloride was tested at a 228 mM. 2,3,4,5-tetrachloro-6-(phenylcarbamoyl)benzoic acid was tested at 275 mM. 1H-benzo[d]imidazol-2-amine hydrochloride was tested at 649 mM.

Test [8] deals with E. faecium, MRSA and S. epidermidis. Nature of the test: Mitigating effects of zinc on biofilm formation inhibition. Type of test: cell-based. As to conditions: 200.0 μM ZnCl2 alone, no test compound.
Text: Next, Zn(II) homeostasis was examined. Zn(II) has been implicated in the pathogenesis of Gram-positive bacterial infections and may be an important regulator of biofilm formation (Conrady, D. G.; Brescia, C. C.; Horii, K.; Weiss, A. A.; Hassett, D. J.; Herr, A. B. Proceedings of the National Academy of Sciences of the United States of America 2008, 105, 19456-19461).
Procedure to Determine the Mitigating Effects of Zinc on E. faecium, MRSA and S. epidermidis Biofilm Formation Inhibition Induced by 2-(2-Amino-1H-Benzo[d]Imidazol-6-Ylcarbamoyl)-3,4,5,6-Tetrachlorobenzoic Acid Hydrochloride:
as §5, with “50.0 μM 2-(2-amino-1H-benzo[d]imidazol-6-ylcarbamoyl)-3,4,5,6-tetrachlorobenzoic acid hydrochloride” for “predetermined concentrations of the test compound”, “media. Samples were then doped with 25.0, 50.0, 75.0, 100.0, 150.0 and 200.0 μM ZnCl2 with controls in which no test compound was added to examine effects of 200.0 μM ZnCl2 on biofilm formation.” for “media.”

The mark [9] stands for this setting: VRE, concentration that inhibits 50% biofilm development, read-out: IC50.

Counter-ions that a name gives are not always drawn. Like-named read-outs stand apart in the source and are kept apart here.

One may read the EC50 as the concentration needed to bring the measured effect to its halfway point. As usually defined, the IC50 is the concentration needed to halve the response being measured.

In the case of `Nc1nc2ccc(NC(=O)[C@H]3[C@@H](C(=O)O)C4(Cl)C(Cl)=C(Cl)C3(Cl)C4(Cl)Cl)cc2[nH]1` (relative stereo) [Compound 4], the figures for the EC50 in test [1] (read-out: EC50 (converted)), in test [2] and in test [3] (read-out: EC50 (converted)) were 280 µM, 19 µM and 6.6 µM, respectively. Further, the 50% inhibitory concentration (IC50) in test [4] (read-out: IC50) stood at 1.5 ± 0.4 µM; in test [5] (setting [9]) it was 210 ± 35 µM; in test [6], 1.9 ± 0.4 µM.
With `Nc1nc2ccc(NC(=O)[C@@H]3C4C=CC(C4)[C@@H]3C(=O)O)cc2[nH]1` (stereo partly drawn) [Compound 5, (2S,3R)-3-(2-amino-1H-benzo[d]imidazol-6-ylcarbamoyl)bicyclo[2.2.1]hept-5-ene-2-carboxylic acid hydrochloride], the EC50 is 107 µM in test [1], 45 µM in test [2] (Staphylococcus epidermidis) and 63 µM in test [3] (Staphylococcus aureus). For the same compound, the IC50 in test [4] (Staphylococcus aureus) was determined as 16 ± 2.9 µM; in test [5], 63 ± 9.1 µM; in test [6] (Staphylococcus epidermidis) it was 4.1 ± 2 µM.
Consider `CC(C)(CC(=O)O)CC(=O)Nc1ccc2nc(N)[nH]c2c1` [Compound 7], for which the EC50 in test [1] (read-out: EC50 (converted)) was 94 µM; in test [2], 260 µM; in test [3] (read-out: EC50 (converted)) it was 205 µM. Further, the IC50 in test [4] (read-out: IC50) is 69 ± 2.7 µM; in test [5] (setting [9]), 0.9 ± 0.3 µM; in test [6], 240 ± 20 µM.
Regarding `Nc1nc2ccc(NC(=O)c3cccc4cccc(C(=O)O)c34)cc2[nH]1` [Compound 9, 8-(2-amino-1H-benzo[d]imidazol-6-ylcarbamoyl)-1-naphthoic acid hydrochloride], the figures for the EC50 in test [1], in test [2] (Staphylococcus epidermidis) and in test [3] (Staphylococcus aureus) were 6.3 µM, 30 µM and above 300 µM, respectively. For the same compound, the IC50 is above 300 µM in test [4] (Staphylococcus aureus), 0.9 ± 0.4 µM in test [5] and 6.2 ± 1.2 µM in test [6] (Staphylococcus epidermidis).
As to `Nc1nc2ccc(N3C(=O)CC4(CCC4)CC3=O)cc2[nH]1` [Compound 14], the EC50 in test [1] (read-out: EC50 (converted)) was 230 µM; in test [2], 180 µM; in test [3] (read-out: EC50 (converted)) it was 48 µM. Moreover, the IC50 in test [4] (read-out: IC50) turned out to be 42 ± 2.4 µM; in test [5] (setting [9]), 1.9 ± 0.5 µM; in test [6], 170 ± 14 µM.
In the case of `Nc1nc2ccc(N3C(=O)c4cccc5cccc(c45)C3=O)cc2[nH]1` [Compound 15], the EC50 in test [1] (read-out: EC50 (converted)) is 110 µM; in test [2], 81 µM; in test [3] (read-out: EC50 (converted)), above 300 µM. Moreover, the IC50 is above 300 µM in test [4] (read-out: IC50), 69 ± 10 µM in test [5] (setting [9]) and 24 ± 6.3 µM in test [6].
In the case of `Nc1nc2ccc(N3C(=O)[C@@H]4[C@H](C3=O)C3(Cl)C(Cl)=C(Cl)C4(Cl)C3(Cl)Cl)cc2[nH]1` [Compound 16], the EC50 in test [1] (read-out: EC50 (converted)) is 31 µM; in test [2], 33 µM; in test [3] (read-out: EC50 (converted)) it was 9.5 µM. Also, the IC50 in test [4] (read-out: IC50) turned out to be 5.7 ± 0.5 µM; in test [5] (setting [9]), 7.4 ± 1.7 µM; in test [6] it was 1.5 ± 0.5 µM.
As to `Nc1nc2ccccc2[nH]1` [Compound 17, reference compound], the “zinc binding, change of 1H NMR signals” value in test [7] was “no change”. Further, the “ability to inhibit biofilm formation” value in test [4], in test [5] (VRE) and in test [6] was “Neither compound was able to inhibit” each time.
Turning to `O=C(O)c1c(Cl)c(Cl)c(Cl)c(Cl)c1C(=O)Nc1ccccc1` [Compound 18, reference compound], in test [7], the “zinc binding, change of 1H NMR signals” value is “no change”. Moreover, the “ability to inhibit biofilm formation” value in test [4], in test [5] (VRE) and in test [6] was “Neither compound was able to inhibit” in each case.
With `[Cl-].[Cl-].[Zn+2]` [ZnCl2, reference compound], in test [8], the “effect on biofilm formation” value is recorded as “no effect on biofilm formation”.
